One experiment is described as follows: DPPH scavenging assay. The experiment is classed as physicochemical. To be noted: DPPH free radical. On the procedure: (§1) The biological activities (e.g., antioxidative activities) of tetrapyrrole compounds described above can be evaluated by a number of assays. For example, an antioxidative activity of a test compound is evaluated by determining the compound's ability to inhibit the formation of conjugated diene during […] linoleic acid peroxidation (Wallin et al (1993) Anal. Biochem. 208: 10-15), or to inhibit the formation of malonyldialdhyde (MDA) during human low density lipoprotein (LDL) peroxidation (Yagi (1982) In lipid peroxides in Biology and Medicine. Yagi, K. (ed), pp. 223-242, Academic Press, New York). In another example, an antioxidative activity of a test compound is evaluated by determining the compound's ability to scavenge the free radicals of ? -diphenyl- ? -picrylhydrazyl (DPPH), or to scavenge superoxide anion, or to chelate Fe2+ cation, or to reduce power. See, e.g., Shimada et aL (1992) J. Agric. Food. Chem. 40: 945-948; Robak & Gryglewski (1988) Biochem. Pharma. 37: 837-841; Dinis et aL (1994) Arch Biochem Biophys 315: 161-169; and Oyaizu (1986) Nippon Shokuhin Kogyo Gakkaishi 35: 771-775.
The compounds were also tested in four other assays, i.e., DPPH scavenging assay, superoxide anion scavenging assay, Fe^2+ chelation assay, and reduction assay. See Shimada et al. J. Agric. Food Chem. (1992) 40:945-948; Robak et al. Biochem. Pharnia. (1988) 37:837-841; Dinis et al. Arch. Biochem. Biophys. (1994) 315:161-169; and Oyaizu et al. Nippon Shokuhin Kogyo Gakkaishi (1986) 35:771-775. Compounds 3 and 4 were stronger scavengers than Compounds 5 and 6 in removing DPPH, which in turn were stronger scavengers than chlorophylls a and b and Compounds 1 and 2. […] The I50 values as to chelating Fe^2+ were lower than those as to scavenging DPPH free radical.
On the technique in general: DPPH is a stable violet radical that fades when it is reduced.

Experiment [1] relates to human low density lipoprotein (LDL). The experiment in a line: LDL measurement assay (MDA formation during LDL peroxidation). Type of experiment: biochemical. On the procedure:
as §1
Under a linoleic acid emulsion assay (see, e.g., Mitsuda et al. Eiyo Shokuryo (1966) 19:210-0.214 and Wallin et al. Anal. Biochem. (1993) 208:10-15), various degrees of inhibition of conjugated diene formation were observed during lipid peroxidation. In addition to Compounds 1-6, chlorophylls a and b were also tested. […] Further, compounds chelated with Mg, e.g., Compounds 1 and 2, had stronger antioxidative property than those without chelation, e.g., Compounds 3 and 4.

Experiment [2] in a line: superoxide anion scavenging assay. The experiment is classed as physicochemical. To be noted: increasing concentrations. How it is done: as §1
The compounds were also tested in four other assays, i.e., DPPH scavenging assay, superoxide anion scavenging assay, Fe^2+ chelation assay, and reduction assay. See Shimada et al. J. Agric. Food Chem. (1992) 40:945-948; Robak et al. Biochem. Pharnia. […]

A value given as a limit tells only on which side of the number the result lay.

With `C=Cc1c(C)c2cc3nc(c4c5[nH]c(cc6nc(cc1[nH]2)C(C)=C6CC)c(C)c5C(=O)[C@@H]4C(=O)OC)[C@@H](CCC(=O)O)[C@@H]3C` [Compound 1], the IC50 (in general, the concentration needed to halve the response being measured) was > 700 µM in the experiment “DPPH scavenging assay” and 10 µM in experiment [1].

`C=Cc1c(C)c2cc3nc(c4c5[nH]c(cc6nc(cc1[nH]2)C(C=O)=C6CC)c(C)c5C(=O)[C@@H]4C(=O)OC)[C@@H](CCC(=O)O)[C@@H]3C` [Compound 2]: the values for the IC50 (in “DPPH scavenging assay”; in experiment [1]) were ~535 µM and 42 µM, respectively.

In the case of `C=Cc1c(C)c2cc3nc(c4c5[nH]c(cc6nc(cc1[nH]2)C(C)=C6CC)c(C)c5C(=O)[C@@H]4C(=O)OC)[C@@H](CCC(=O)O)[C@@H]3C` [Compound 3], the IC50 in the experiment “DPPH scavenging assay” is ~40 µM; in experiment [1], 21 µM.

With `C=Cc1c(C)c2cc3nc(c4c5[nH]c(cc6nc(cc1[nH]2)C(C=O)=C6CC)c(C)c5C(=O)[C@@H]4C(=O)OC)[C@@H](CCC(=O)O)[C@@H]3C` [Compound 4], the IC50 was ~28 µM in the experiment “DPPH scavenging assay” and 20 µM in experiment [1].

As for `C=Cc1c(C)c2cc3nc(c4c5[nH]c(cc6nc(cc1[nH]2)C(C)=C6CC)c(C)c5C(=O)C4C(=O)OC)C(CCC(=O)OCC=C(C)CCCC(C)CCCC(C)CCCC(C)C)C3C` (stereo not shown) [Compound 5], the “superoxide anion scavenging ability as concentration increased” value in experiment [2] is “a gradual increase and a subsequent plateau in their scavenging ability”. The IC50 in “DPPH scavenging assay” was ~160 µM; in experiment [1], 17 µM.

With `C=Cc1c(C)c2cc3nc(c4c5[nH]c(cc6nc(cc1[nH]2)C(C=O)=C6CC)c(C)c5C(=O)C4C(=O)OC)C(CCC(=O)OCC=C(C)CCCC(C)CCCC(C)CCCC(C)C)C3C` (stereo not shown) [Compound 6], in experiment [2], the “superoxide anion scavenging ability as concentration increased” value is “a gradual increase and a subsequent plateau in their scavenging ability”. Further, the IC50 in the experiment “DPPH scavenging assay” was ~120 µM; in experiment [1], 54 µM.

Regarding `Cc1c(C)c2c(c(C)c1O)CCC(C)(C(=O)O)O2` (stereo not shown) [Trolox, reference compound], in experiment [1], the IC50 was ~16 µM.

In the case of `C=Cc1c(C)c2cc3nc(c4c5[nH]c(cc6nc(cc1[nH]2)C(C)=C6CC)c(C)c5C(=O)[C@@H]4C(=O)OC)[C@@H](CCC(=O)OC/C=C(\C)CCC[C@H](C)CCC[C@H](C)CCCC(C)C)[C@@H]3C` [chlorophyll a, reference compound], the IC50 in the experiment “DPPH scavenging assay” is ~265 µM; in experiment [1], 5 µM.

Take `C=Cc1c(C)c2cc3nc(c4c5[nH]c(cc6nc(cc1[nH]2)C(C=O)=C6CC)c(C)c5C(=O)[C@@H]4C(=O)OC)[C@@H](CCC(=O)OC/C=C(\C)CCC[C@H](C)CCC[C@H](C)CCCC(C)C)[C@@H]3C` [chlorophyll b, reference compound]: the IC50 in the experiment “DPPH scavenging assay” is ~200 µM; in experiment [1], 26 µM.

For the origin of these results see US20040077621A1, “Antioxidants” (Academia Sinica, priority 2002, published 2004).
